# PMC10824666 (Nature Cancer, 2023)
# Like-named read-outs stand apart in the source and are kept apart here.
# Biological target: T1, PKD2 (Homo sapiens, UniProt Q9BZL6)
# T1 construct: gene PRKD2
# T1 sequence (Q9BZL6 1-878): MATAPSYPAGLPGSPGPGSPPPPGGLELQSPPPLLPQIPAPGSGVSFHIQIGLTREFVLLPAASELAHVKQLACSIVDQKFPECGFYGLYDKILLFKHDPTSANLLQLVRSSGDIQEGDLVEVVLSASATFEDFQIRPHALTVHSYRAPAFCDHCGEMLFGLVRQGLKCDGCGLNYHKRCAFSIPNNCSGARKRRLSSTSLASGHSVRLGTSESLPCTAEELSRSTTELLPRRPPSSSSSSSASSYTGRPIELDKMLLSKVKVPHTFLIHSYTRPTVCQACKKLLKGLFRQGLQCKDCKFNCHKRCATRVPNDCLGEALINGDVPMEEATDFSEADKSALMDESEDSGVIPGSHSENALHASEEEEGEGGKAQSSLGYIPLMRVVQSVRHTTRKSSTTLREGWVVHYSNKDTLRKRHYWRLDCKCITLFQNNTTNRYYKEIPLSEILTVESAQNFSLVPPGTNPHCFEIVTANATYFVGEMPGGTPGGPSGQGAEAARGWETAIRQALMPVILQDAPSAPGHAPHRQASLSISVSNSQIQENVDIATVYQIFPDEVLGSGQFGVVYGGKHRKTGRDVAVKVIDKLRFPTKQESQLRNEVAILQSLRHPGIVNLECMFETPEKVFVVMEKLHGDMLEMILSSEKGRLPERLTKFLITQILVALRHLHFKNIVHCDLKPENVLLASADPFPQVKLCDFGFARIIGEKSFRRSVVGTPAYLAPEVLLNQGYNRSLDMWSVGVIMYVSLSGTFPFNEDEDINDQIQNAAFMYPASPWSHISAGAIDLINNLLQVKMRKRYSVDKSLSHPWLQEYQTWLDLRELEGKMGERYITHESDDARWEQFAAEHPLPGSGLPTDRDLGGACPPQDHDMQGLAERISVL
# Test: biochemical
# Design: Eurofins DiscoverX kinase panel, competitive binding assay at 1 uM, percent of DMSO control
# Conditions: competitive binding, percent of DMSO control
# How it was run: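 Single-point profiling at 1 µM compound in a competition-binding format against 96 kinases, read out as POC relative to control; n = 1.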
smiles,measurement,setting,value
CC(C)(C)NS(=O)(=O)c1cccc(NC(=O)c2ccc(S(=O)(=O)NC(C)(C)C)cc2N2CCC3(CC2)CC3)c1 [AM-1882],remaining activity at 1 µM,"read-out: Kinome Profiling performed by Eurofins DiscoverX / AM-1882, 1.0 µM / POC",64.5%
CC(C)(CO)Nc1ccc(C(=O)Nc2cccc(S(=O)(=O)C3CCCC3)c2)c(N2CCC3(CC2)CC3)n1 [AM-0277],remaining activity at 1 µM,"read-out: Kinome Profiling performed by Eurofins DiscoverX / AM-0277, 1.0 µM / POC",100%
C[C@@H]1CN(c2cccc(NC(=O)c3ccc(NS(=O)(=O)CCO)cc3N3CCC4(CC3)CC4)n2)CCO1 [AM-5308],remaining activity at 1 µM,"read-out: Kinome Profiling performed by Eurofins DiscoverX / AM-5308, 1.0 µM / POC",100%
